Source: patent publication US20260159512A1, “BCAT2 INHIBITORS” (AGIOS PHARMACEUTICALS, INC., priority 2021, published 2026)

molecular target: T1, BCAT2 (Homo sapiens, UniProt O15382); assay: BCAT2 in vitro enzyme inhibition assay (resazurin/diaphorase-coupled fluorescence); type: biochemical; conditions: average where tested multiple times
T1 sequence (O15382 28-392): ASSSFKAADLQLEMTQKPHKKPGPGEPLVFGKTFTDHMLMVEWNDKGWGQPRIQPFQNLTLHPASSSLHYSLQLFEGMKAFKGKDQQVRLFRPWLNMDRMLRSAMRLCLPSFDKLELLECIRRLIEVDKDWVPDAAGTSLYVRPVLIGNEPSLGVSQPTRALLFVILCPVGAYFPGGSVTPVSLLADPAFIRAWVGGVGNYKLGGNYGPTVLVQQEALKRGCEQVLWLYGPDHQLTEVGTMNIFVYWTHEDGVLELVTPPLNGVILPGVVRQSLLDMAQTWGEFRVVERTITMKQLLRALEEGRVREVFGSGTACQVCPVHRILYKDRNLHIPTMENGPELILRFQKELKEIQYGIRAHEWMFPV
Description: BCAT2 In Vitro Enzyme Inhibition Assay
1.67× hBCAT2 Enzyme Mix: 0.33 μg/mL hBCAT2, 1× Buffer
2.5× Substrate Mix: 460 μM L-leucine, 420 μM α-KetoGlutarate, 10 U/mL glutamate dehydrogenase, 10 mM NAD, 30 μg/mL diaphorase, 20 μm Resazurin
BCAT2 enzyme stock solution was diluted to prepare a 1.67× hBCAT2 Enzyme Mix. 1 μL of test compound was first added to the reaction wells followed by 30 μL of 1.67× hBCAT2 Enzyme Mix and incubated at room temperature (25° C.) for one hour. Meanwhile the Substrate Mix was prepared. The reaction was initiated by the addition of 20 μL of the 2.5× Substrate Mix, bringing the final reaction mix of all components to 1×. Reactions were quenched after one hour by the addition of 25 μL of 6% SDS and reaction progress was measured via fluorescence read (Ex 540/Em 590).
Test Compound Preparation:
Test compounds were prepared at 50× final concentration in DMSO, 1 to 3 dilutions were made for 10 points. The compounds were added to the assay as a 1 to 50 dilution (1 μL in 50 μL) to yield a top assay final concentration of 100 μM, decreasing 3-fold for 10 points. Each compound dilution series test also included an assay max (1 μL DMSO Added in lieu of compound, Full Reaction Components Included) and Min (1 μL DMSO Added in lieu of compound, 30 μl of 1.67× hBCAT2 Enzyme Mix replated by 30 μL of 1× Buffer). All tests were performed in technical duplicate.
Where a compound was tested multiple times, the average value of the tests is reported.

IC50 [nM] | Compound
> 1000 | O=C(NC1COCC(n2c(-c3ncccc3F)nc3cnc(-n4ccnn4)cc32)C1)c1ncc(C(F)F)s1 (single isomer, unassigned) [Example 145, 5-(difluoromethyl)-N-(5-(2-(3-fluoropyridin-2-yl)-6-(1H-1,2,3-triazol-1-yl)-1H-imidazo[4,5-c]pyridin-1-yl)tetrahydro-2H-pyran-3-yl)thiazole-2-carboxamide]
> 1000 | O=C(NC1COCC(n2c(-c3ccccn3)nc3cnc(-n4ccnn4)cc32)C1)c1ncc(C(F)F)s1 (single isomer, unassigned) [Example 147, 5-(difluoromethyl)-N-(5-(2-(pyridin-2-yl)-6-(1H-1,2,3-triazol-1-yl)-1H-imidazo[4,5-c]pyridin-1-yl)tetrahydro-2H-pyran-3-yl)thiazole-2-carboxamide]
> 1000 | CC(C)Cc1nc2cnc(-c3ccn(C(F)F)n3)cc2n1[C@H]1C[C@H](O)C[C@@H](NC(=O)c2ncc(Cl)s2)C1 (single isomer, unassigned) [Example 212]
> 1000 | CO[C@@H]1C[C@@H](NC(=O)c2ncc(Cl)s2)C[C@@H](n2c(CC(C)C)nc3cnc(-n4nccn4)cc32)C1 (single isomer, unassigned) [Example 422]
100 to 500 | CO[C@@H]1C[C@@H](NC(=O)c2ccc(Cl)s2)C[C@@H](n2c(CC(C)C)nc3cnc(-c4ncccn4)cc32)C1 (single isomer, unassigned) [Example 438]
500 to 1000 | CO[C@H]1C[C@H](NC(=O)c2ncc(Cl)s2)C[C@H](n2c(-c3ccccc3F)nc3cnc(-n4nccn4)cc32)C1 (stereo in doubt) [Example 423, 5-chloro-N-((1R,3S,5S)-3-(2-(2-fluorophenyl)-6-(2H-1,2,3-triazol-2-yl)-1H-imidazo[4,5-c]pyridin-1-yl)-5-methoxycyclohexyl)thiazole-2-carboxamide]
> 1000 | CO[C@H]1C[C@H](NC(=O)c2ncc(Cl)s2)C[C@H](n2c(CC(C)C)nc3cnc(-c4ccccn4)cc32)C1 (stereo in doubt) [Example 425, 5-chloro-N-((1R,3S,5S)-3-(2-isobutyl-6-(pyridin-2-yl)-1H-imidazo[4,5-c]pyridin-1-yl)-5-methoxycyclohexyl)thiazole-2-carboxamide]
100 to 500 | CO[C@H]1C[C@H](NC(=O)c2ncc(Cl)s2)C[C@H](n2c(-c3ccccc3C#N)nc3cnc(-c4nc[nH]n4)cc32)C1 (stereo in doubt) [Example 445, 5-chloro-N-((1R,3S,5S)-3-(2-(2-cyanophenyl)-6-(1H-1,2,4-triazol-3-yl)-1H-imidazo[4,5-c]pyridin-1-yl)-5-methoxycyclohexyl)thiazole-2-carboxamide]
100 to 500 | CC(C)Cc1nc2cnc(-c3nc[nH]n3)cc2n1[C@H]1C[C@@H](NC(=O)c2ccc(Cl)s2)CC(F)(F)C1 (stereo in doubt) [Example 453, 5-chloro-N-((1R,5S)-3,3-difluoro-5-(2-isobutyl-6-(1H-1,2,4-triazol-3-yl)-1H-imidazo[4,5-c]pyridin-1-yl)cyclohexyl)thiophene-2-carboxamide]
100 to 500 | CC(C)[C@@H](N)c1nc2cnc(-c3ccccn3)cc2n1[C@@H]1CCC[C@H](NC(=O)c2ncc(Cl)s2)C1 [Example 167, N-((1S,3R)-3-(2-((R)-1-amino-2-methylpropyl)-6-(pyridin-2-yl)-1H-imidazo[4,5-c]pyridin-1-yl)cyclohexyl)-5-chlorothiazole-2-carboxamide]
> 1000 | O=C(N[C@H]1CCC[C@@H](n2c(C3CNCCO3)nc3cnc(-c4nc[nH]n4)cc32)C1)c1ncc(Cl)s1 (stereo partly drawn) [Example 174, 5-chloro-N-((1S,3R)-3-(2-(morpholin-2-yl)-6-(1H-1,2,4-triazol-3-yl)-1H-imidazo[4,5-c]pyridin-1-yl)cyclohexyl)thiazole-2-carboxamide]
500 to 1000 | C[C@H]1CCCN1c1cc2c(cn1)nc(-c1ccccc1F)n2[C@@H]1CCC[C@H](NC(=O)c2ncc(Cl)s2)C1 [Example 194, 5-chloro-N-((1S,3R)-3-(2-(2-fluorophenyl)-6-((S)-2-methylpyrrolidin-1-yl)-1H-imidazo[4,5-c]pyridin-1-yl)cyclohexyl)thiazole-2-carboxamide]
> 1000 | COC[C@@H]1CCCN1c1cc2c(cn1)nc(-c1ccccc1F)n2[C@@H]1CCC[C@H](NC(=O)c2ncc(Cl)s2)C1 [Example 197, 5-chloro-N-((1S,3R)-3-(2-(2-fluorophenyl)-6-((S)-2-(methoxymethyl)pyrrolidin-1-yl)-1H-imidazo[4,5-c]pyridin-1-yl)cyclohexyl)thiazole-2-carboxamide]
> 1000 | CC(C)Cc1nc2cnc(-n3cc(F)cn3)cc2n1[C@H]1C[C@H](O)C[C@@H](NC(=O)c2ncc(Cl)s2)C1 [Example 222, 5-chloro-N-((1S,3R,5R)-3-(6-(4-fluoro-1H-pyrazol-1-yl)-2-isobutyl-1H-imidazo[4,5-c]pyridin-1-yl)-5-hydroxycyclohexyl)thiazole-2-carboxamide]
> 1000 | CC(C)Cc1nc2cnc(-c3ccn(C)n3)cc2n1[C@H]1CCC[C@@H](NC(=O)c2ncc(Cl)s2)[C@@H]1O [Example 224, 5-chloro-N-((1R,2S,3S)-2-hydroxy-3-(2-isobutyl-6-(1-methyl-1H-pyrazol-3-yl)-1H-imidazo[4,5-c]pyridin-1-yl)cyclohexyl)thiazole-2-carboxamide]
> 1000 | CC(C)Cc1nc2cnc(-c3ccn[nH]3)cc2n1[C@H]1CCC[C@@H](NC(=O)c2ncc(Cl)s2)[C@@H]1O [Example 226, 5-chloro-N-((1R,2S,3S)-2-hydroxy-3-(2-isobutyl-6-(1H-pyrazol-5-yl)-1H-imidazo[4,5-c]pyridin-1-yl)cyclohexyl)thiazole-2-carboxamide]
> 1000 | CC(C)Cc1nc2cnc(-n3nccn3)cc2n1[C@H]1CCC[C@@H](NC(=O)c2ncc(Cl)s2)[C@@H]1O [Example 228, 5-chloro-N-((1R,2S,3S)-2-hydroxy-3-(2-isobutyl-6-(2H-1,2,3-triazol-2-yl)-1H-imidazo[4,5-c]pyridin-1-yl)cyclohexyl)thiazole-2-carboxamide]
≤ 100 | CC(=O)N1CC(NC(=O)c2ccc(Br)s2)CC(n2c(-c3ccccn3)nc3ccc(-c4nnco4)cc32)C1 (stereo not drawn) [Example 285, N-(5-(6-(1,3,4-oxadiazol-2-yl)-2-(pyridin-2-yl)-1H-benzo[d]imidazol-1-yl)-1-acetylpiperidin-3-yl)-5-bromothiophene-2-carboxamide]
500 to 1000 | O=C(N[C@H]1CCC[C@@H](n2c(-c3ccccc3F)nc3cnc(-n4ccccc4=O)cc32)C1)c1ncc(Cl)s1 [Example 357, 5-chloro-N-((1S,3R)-3-(2-(2-fluorophenyl)-6-(2-oxopyridin-1(2H)-yl)-1H-imidazo[4,5-c]pyridin-1-yl)cyclohexyl)thiazole-2-carboxamide]
> 1000 | CC(O)Cc1nc2cnc(-c3ccccn3)cc2n1[C@@H]1CCC[C@H](NC(=O)c2ncc(Cl)s2)C1 (stereo partly drawn) [Example 360, 5-chloro-N-((1S,3R)-3-(2-(2-hydroxypropyl)-6-(pyridin-2-yl)-1H-imidazo[4,5-c]pyridin-1-yl)cyclohexyl)thiazole-2-carboxamide]
≤ 100 | CC(C)Cc1nc2cnc(-c3ncc[nH]3)cc2n1[C@@H]1CCC[C@H](NC(=O)c2ncc(Cl)s2)C1 [Example 361, N-((1S,3R)-3-(6-(1H-imidazol-2-yl)-2-isobutyl-1H-imidazo[4,5-c]pyridin-1-yl)cyclohexyl)-5-chlorothiazole-2-carboxamide]
> 1000 | CC(=O)Cc1nc2cnc(-c3ccccn3)cc2n1[C@@H]1CCC[C@H](NC(=O)c2ncc(Cl)s2)C1 [Example 362, 5-chloro-N-((1S,3R)-3-(2-(2-oxopropyl)-6-(pyridin-2-yl)-1H-imidazo[4,5-c]pyridin-1-yl)cyclohexyl)thiazole-2-carboxamide]
> 1000 | CC(=O)N[C@H](c1nc2cnc(-c3nc[nH]n3)cc2n1[C@@H]1CCC[C@H](NC(=O)c2ncc(Cl)s2)C1)C(C)C [Example 368, N-((1S,3R)-3-(2-((S)-1-acetamido-2-methylpropyl)-6-(1H-1,2,4-triazol-3-yl)-1H-imidazo[4,5-c]pyridin-1-yl)cyclohexyl)-5-chlorothiazole-2-carboxamide]
500 to 1000 | CN(C)Cc1ccccc1-c1nc2cnc(-c3nc[nH]n3)cc2n1[C@@H]1CCC[C@H](NC(=O)c2ncc(Cl)s2)C1 [Example 375, 5-chloro-N-((1S,3R)-3-(2-(2-((dimethylamino)methyl)phenyl)-6-(1H-1,2,4-triazol-3-yl)-1H-imidazo[4,5-c]pyridin-1-yl)cyclohexyl)thiazole-2-carboxamide]
